# From ChEMBL document CHEMBL1201862, “PubChem BioAssay data set” (2004)
# Counter-ions that a name gives are not always drawn. Active and inactive are the calls of the source.
# Legend:
# [1] = target: T1, Caspase-6 (Homo sapiens, UniProt P55212); test: human caspase-6 inhibitors, dose response, biochemical, VEID-R110 fluorescence, cherry-pick (AID 720632)
# T1 sequence (P55212 whole entry): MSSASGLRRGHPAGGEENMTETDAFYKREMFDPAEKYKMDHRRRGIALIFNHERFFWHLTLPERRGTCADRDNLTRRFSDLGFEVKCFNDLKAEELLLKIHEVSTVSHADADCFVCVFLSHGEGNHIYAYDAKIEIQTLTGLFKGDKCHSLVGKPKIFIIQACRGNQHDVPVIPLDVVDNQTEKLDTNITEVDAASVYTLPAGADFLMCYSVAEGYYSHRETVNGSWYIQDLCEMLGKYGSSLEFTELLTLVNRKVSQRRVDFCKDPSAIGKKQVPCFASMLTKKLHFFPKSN
# [2] = target: T2, DNA repair protein RAD52 homolog (Homo sapiens, UniProt P43351); type: functional, biochemical
# T2 sequence (P43351 whole entry): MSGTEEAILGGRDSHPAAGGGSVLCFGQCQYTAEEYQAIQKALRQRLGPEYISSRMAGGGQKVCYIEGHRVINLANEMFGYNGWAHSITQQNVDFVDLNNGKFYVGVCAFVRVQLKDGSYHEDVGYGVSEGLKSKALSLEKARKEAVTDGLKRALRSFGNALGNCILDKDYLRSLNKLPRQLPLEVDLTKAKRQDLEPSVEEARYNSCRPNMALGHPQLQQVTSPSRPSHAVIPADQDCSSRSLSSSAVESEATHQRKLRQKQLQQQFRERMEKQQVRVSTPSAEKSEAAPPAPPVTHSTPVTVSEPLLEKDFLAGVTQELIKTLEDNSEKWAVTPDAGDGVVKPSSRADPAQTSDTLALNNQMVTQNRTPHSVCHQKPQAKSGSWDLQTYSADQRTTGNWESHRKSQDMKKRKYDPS
# [3] = target: T3, Short transient receptor potential channel 4 (Mus musculus, UniProt Q9QUQ5); test: mouse TRPC4 channel activators, dose response, cell-based, HEK293 TRPC4/mu-opioid, Fluo-4 calcium (AID 434937); type: functional
# T3 sequence (Q9QUQ5 whole entry): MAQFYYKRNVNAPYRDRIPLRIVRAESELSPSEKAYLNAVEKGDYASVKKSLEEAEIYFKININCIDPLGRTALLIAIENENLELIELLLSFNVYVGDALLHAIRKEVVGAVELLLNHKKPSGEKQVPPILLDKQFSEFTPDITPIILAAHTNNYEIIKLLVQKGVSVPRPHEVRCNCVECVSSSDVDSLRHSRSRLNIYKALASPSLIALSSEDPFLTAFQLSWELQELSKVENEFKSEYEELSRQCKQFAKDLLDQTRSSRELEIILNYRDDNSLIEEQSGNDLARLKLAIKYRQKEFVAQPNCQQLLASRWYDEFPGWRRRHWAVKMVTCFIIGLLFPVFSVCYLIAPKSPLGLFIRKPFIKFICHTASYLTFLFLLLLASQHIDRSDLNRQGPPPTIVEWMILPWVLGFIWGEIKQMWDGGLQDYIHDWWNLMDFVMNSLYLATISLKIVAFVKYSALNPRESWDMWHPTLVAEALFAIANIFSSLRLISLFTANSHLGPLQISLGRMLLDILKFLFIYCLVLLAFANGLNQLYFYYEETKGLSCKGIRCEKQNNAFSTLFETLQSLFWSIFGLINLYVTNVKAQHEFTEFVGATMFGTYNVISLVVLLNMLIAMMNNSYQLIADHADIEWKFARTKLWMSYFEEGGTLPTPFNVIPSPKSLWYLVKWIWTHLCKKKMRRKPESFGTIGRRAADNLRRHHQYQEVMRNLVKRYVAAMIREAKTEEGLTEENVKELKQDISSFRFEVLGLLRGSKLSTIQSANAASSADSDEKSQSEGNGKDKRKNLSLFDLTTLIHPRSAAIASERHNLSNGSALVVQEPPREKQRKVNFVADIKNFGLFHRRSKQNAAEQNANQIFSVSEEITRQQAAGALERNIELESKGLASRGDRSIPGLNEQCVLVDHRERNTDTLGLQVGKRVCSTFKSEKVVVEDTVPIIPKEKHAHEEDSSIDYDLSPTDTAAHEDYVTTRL
# [4] = target: Cytochrome P450 2C19 (Homo sapiens, UniProt P33261); test: Cytochrome panel assay with activity outcomes. Panel member name: p450-cyp2c19 Compounds with AC50 equal or less than 10 uM are considered active; type: functional; conditions: read-out: AC50
# Sequence of Cytochrome P450 2C19 (P33261 whole entry): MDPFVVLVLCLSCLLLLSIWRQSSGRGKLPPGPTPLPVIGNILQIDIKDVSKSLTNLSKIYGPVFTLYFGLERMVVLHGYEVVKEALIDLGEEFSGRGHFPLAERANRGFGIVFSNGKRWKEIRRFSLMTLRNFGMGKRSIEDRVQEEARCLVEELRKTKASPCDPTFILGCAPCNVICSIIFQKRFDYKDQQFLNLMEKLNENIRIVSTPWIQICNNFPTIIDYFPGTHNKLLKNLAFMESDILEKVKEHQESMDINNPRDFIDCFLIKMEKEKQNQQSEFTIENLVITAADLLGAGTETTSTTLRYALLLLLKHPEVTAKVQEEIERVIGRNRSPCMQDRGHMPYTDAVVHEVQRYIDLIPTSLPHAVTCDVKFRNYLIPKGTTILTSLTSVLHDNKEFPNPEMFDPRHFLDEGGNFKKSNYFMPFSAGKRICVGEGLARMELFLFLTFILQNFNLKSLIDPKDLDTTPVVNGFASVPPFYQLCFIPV
# [5] = target: Cytochrome P450 2C9 (Homo sapiens, UniProt P11712)
# Sequence of Cytochrome P450 2C9 (P11712 whole entry): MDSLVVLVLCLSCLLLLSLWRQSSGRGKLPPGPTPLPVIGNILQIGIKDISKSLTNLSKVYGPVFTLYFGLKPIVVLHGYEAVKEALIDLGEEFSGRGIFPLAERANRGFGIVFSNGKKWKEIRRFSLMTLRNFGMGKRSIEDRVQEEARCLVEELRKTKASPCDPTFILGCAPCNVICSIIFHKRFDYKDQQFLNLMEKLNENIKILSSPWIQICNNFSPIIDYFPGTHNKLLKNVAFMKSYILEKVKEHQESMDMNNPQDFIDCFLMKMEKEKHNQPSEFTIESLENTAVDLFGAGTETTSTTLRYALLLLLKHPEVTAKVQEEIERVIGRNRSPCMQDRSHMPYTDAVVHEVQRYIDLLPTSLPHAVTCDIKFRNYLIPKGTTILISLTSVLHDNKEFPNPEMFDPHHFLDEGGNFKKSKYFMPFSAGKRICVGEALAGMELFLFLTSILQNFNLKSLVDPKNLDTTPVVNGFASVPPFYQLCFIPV
# [6] = A cytotoxicity screen of small molecule inhibitors of the PhoP region in Salmonella typhi identified in the primary screen. [Related pubchem assays: 1850, 1864, 1985 ]; type: functional
# [7] = target: T4, Aminopeptidase N (Plasmodium falciparum FcB1/Columbia, UniProt O96935); test: P. falciparum M1AAP inhibitors, biochemical, fluorogenic H-Leu-NHMec substrate, 1536-well (AID 1445); design: species or system Plasmodium falciparum 3D7, 3D7
# T4 sequence (O96935 whole entry): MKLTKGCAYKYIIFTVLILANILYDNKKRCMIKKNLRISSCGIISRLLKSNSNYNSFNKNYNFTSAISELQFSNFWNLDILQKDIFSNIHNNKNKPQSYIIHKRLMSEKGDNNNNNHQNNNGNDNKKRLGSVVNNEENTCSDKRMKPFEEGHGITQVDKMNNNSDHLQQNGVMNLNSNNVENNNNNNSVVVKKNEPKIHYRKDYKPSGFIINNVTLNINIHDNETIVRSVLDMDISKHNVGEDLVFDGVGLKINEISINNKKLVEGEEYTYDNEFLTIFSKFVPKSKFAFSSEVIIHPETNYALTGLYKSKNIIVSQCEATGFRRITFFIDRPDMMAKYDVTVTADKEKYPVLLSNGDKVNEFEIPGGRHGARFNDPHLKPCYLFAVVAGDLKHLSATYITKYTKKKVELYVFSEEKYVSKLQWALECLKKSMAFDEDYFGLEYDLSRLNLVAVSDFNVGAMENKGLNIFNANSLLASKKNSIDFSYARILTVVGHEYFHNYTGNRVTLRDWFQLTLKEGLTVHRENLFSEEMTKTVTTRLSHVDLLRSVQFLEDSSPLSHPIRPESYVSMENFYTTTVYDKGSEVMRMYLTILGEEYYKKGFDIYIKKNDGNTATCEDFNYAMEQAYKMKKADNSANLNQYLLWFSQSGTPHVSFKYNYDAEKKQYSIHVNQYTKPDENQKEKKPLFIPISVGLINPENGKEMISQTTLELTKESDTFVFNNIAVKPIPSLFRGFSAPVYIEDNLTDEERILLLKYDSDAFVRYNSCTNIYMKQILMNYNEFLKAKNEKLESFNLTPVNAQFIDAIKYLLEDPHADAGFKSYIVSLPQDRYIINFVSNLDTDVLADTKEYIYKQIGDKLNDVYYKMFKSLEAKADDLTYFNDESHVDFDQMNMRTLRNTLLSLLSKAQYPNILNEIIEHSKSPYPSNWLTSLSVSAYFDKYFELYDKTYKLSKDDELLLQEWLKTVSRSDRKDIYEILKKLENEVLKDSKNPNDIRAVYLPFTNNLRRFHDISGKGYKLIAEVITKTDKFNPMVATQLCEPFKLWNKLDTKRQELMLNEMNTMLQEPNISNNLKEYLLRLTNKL
smiles,measurement,setting,value
NC(=O)C1C(=O)c2ccccc2C1(C[N+](=O)[O-])c1ccccc1 (configuration not stated),AC50,[1],38.1 µM (active)
Cc1cc(N)ccc1NC(=O)CN1CCCC1,AC50,[2],1.73 µM (active)
CN(CCc1ccccn1)C(=O)CC1C(=O)NCCN1Cc1cccc(F)c1 (configuration not stated),EC50,[3],2.37 µM (active)
CC[C@@H](CO)NC(=O)[C@@H]1C=C2c3cccc4[nH]cc(c34)C[C@H]2N(C)C1 [METHYLERGONOVINE MALEATE],AC50,[1],7.04 µM (active)
CNc1oc(C)nc1S(=O)(=O)c1ccc(C)cc1,AC50,[4],31.6 µM (inconclusive)
same,AC50,[5],inconclusive
CCCC(c1nnnn1Cc1ccc(OC)cc1)N1CCN(c2ccccc2OC)CC1 (configuration not stated),EC50,[6],> 50 µM (active)
C=CCOc1ccc(/C=C2\C(=N)N3N=C(S(=O)(=O)CC)SC3=NC2=O)cc1OC,IC50,[7],24.5 µM (active)
COc1ccccc1CCC(=O)Nc1cc(S(=O)(=O)N2CCCCC2)ccc1N1CCN(C)CC1,EC50,[3],0.944 µM (active)
CCCc1cc(=O)oc2c(CN3CCN(C)CC3)c(O)c(Cl)cc12,IC50,[7],42 µM (active)
Cn1c(N)c(N=O)c(=O)n(C)c1=S,AC50,[1],6.37 µM (active)
C[C@](N)(Cc1ccc(O)c(O)c1)C(=O)O [METHYLDOPA],AC50,[1],39.2 µM (active)
